According to US11912682B2, “Isoindolinone compounds” (Monte Rosa Therapeutics, Inc., priority 2021, dated 2024):

Biological target: GSPT1 (Homo sapiens (Human), UniProt P15170+Q96SW2)
Experiment: immunofluorescence assay for GSPT1 degradation in CAL-51 cells (Example 10)
Type: cell-based
Details: CAL-51 cells, 6 h; read-out: IF Class (GSPT1 degradation DC50)
Experimental: The representative compounds were tested in an immunofluorescence assay for their activity to degrade GSPT1. […] Compounds were stored at 10 mM DMSO stocks. […] Cells were subsequently rinsed with PBS and fixed in 10% Formalin solution (50 μl, Sigma HT5011)) for 20 mins at room temperature. […] Following three further PBS washes, 50 μL blocking buffer (1% BSA, Sigma A4503, in PBS) was added for 45 min for signal-to noise reduction. Primary antibody (human GSPT1, Sigma HPA052488) was diluted in blocking buffer (dil.1/300, 35 μL/well) and incubated with the cells overnight at 4° C. […] After three final PBS washes, samples were conserved in 100 μL PBS in the dark, until measurement. Image acquisition was performed on the Operetta High-Content Imager (Perkin-Elmer). […] For the determination of GSPT1 DC50 values, a custom algorithm implemented in the PerkinElmer image analysis software Harmony-Acapella® was developed. After user-defined setting of adjustment parameters, the analysis was run identically without human intervention for all image fields. DAPI staining of the nuclei was used to determine the location of cells using standard nuclei detection modules. Segmentation artifacts were removed by threshold-based filters for area, roundness and intensity. The outline of the cells was determined analogously from the sum of the normalized, smoothed DAPI and Actin channel, starting from each nucleus. […] GSPT1 degradation (DC50) was calculated after normalization to controls and data import in CDD vault Database, using non-linear regression.

Sequence of GSPT1 (P15170 whole entry): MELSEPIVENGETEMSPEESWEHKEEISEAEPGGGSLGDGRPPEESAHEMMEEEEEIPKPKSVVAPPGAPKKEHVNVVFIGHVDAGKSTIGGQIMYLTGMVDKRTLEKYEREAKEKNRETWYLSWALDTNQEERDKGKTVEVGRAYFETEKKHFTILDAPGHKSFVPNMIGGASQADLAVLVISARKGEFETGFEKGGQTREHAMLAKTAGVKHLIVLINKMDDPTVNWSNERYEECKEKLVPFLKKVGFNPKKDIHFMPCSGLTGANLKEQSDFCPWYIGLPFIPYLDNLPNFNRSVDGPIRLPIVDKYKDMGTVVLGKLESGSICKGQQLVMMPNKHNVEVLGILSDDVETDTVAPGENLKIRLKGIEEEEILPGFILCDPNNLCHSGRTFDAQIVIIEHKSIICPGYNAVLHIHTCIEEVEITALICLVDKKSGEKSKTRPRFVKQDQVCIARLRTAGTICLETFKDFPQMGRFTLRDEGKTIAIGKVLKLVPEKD
Sequence of GSPT1 (Q96SW2 whole entry): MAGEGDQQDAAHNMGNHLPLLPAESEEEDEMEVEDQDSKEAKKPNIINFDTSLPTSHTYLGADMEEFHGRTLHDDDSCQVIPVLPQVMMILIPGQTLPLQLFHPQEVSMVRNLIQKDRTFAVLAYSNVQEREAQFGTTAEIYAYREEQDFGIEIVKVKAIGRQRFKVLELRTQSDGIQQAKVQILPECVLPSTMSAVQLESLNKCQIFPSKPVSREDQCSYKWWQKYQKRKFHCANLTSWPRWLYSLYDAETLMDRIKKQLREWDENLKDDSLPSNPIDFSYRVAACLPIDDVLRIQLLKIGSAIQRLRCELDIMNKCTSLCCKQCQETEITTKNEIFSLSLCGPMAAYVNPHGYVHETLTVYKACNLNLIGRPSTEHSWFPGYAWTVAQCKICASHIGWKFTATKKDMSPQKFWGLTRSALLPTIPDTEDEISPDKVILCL
Sequence of GSPT1 (Q16531 2-1140 partner): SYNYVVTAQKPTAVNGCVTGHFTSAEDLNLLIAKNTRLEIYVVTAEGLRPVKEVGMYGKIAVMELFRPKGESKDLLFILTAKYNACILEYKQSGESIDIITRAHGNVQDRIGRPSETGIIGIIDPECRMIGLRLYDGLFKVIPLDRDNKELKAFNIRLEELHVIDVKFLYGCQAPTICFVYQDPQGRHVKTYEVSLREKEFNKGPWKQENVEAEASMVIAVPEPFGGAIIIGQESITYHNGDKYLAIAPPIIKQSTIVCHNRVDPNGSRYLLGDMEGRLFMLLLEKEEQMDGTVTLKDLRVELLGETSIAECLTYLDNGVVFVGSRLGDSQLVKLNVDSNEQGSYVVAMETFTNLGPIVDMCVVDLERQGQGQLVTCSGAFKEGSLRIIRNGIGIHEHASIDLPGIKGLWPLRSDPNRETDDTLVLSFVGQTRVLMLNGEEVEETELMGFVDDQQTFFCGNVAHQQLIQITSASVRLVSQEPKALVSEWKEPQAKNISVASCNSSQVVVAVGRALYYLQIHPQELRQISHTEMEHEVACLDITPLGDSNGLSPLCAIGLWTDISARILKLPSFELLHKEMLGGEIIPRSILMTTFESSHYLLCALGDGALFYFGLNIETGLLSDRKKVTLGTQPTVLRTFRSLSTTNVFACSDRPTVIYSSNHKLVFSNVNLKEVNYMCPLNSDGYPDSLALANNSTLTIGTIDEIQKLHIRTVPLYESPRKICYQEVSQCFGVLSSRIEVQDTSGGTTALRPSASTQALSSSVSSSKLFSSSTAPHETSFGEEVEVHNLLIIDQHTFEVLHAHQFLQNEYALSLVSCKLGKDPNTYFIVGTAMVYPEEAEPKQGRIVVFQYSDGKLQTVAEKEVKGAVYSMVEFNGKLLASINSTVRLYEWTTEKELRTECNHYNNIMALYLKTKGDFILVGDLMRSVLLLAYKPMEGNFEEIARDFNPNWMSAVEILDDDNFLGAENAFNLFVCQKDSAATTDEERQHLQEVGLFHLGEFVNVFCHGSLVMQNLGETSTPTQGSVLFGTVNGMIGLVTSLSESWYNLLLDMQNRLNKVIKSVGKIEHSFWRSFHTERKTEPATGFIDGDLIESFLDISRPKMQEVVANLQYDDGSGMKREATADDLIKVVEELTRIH

Structure (SMILES)	DC50 [nM]
Cc1cc(F)c(NC(=O)OCc2ccc3c(c2)C(=O)N(C2CCC(=O)NC2=O)C3)cc1F (stereo not shown) [Compound 213, (2-(2,6-dioxopiperidin-3-yl)-3-oxoisoindolin-5-yl)methyl (2,5-difluoro-4-methylphenyl)carbamate]	> 300
CC(C)(O)c1ccc(NC(=O)OCc2ccc3c(c2)C(=O)N(C2CCC(=O)NC2=O)C3)cn1 (stereo not shown) [Compound 199, (2-(2,6-dioxopiperidin-3-yl)-3-oxoisoindolin-5-yl)methyl (6-(2-hydroxypropan-2-yl)pyridin-3-yl)carbamate]	> 300
O=C1CCC(N2Cc3ccc(COC(=O)NC45CC(C4)C5)cc3C2=O)C(=O)N1 (stereo not shown) [Compound 193, (2-(2,6-dioxopiperidin-3-yl)-3-oxoisoindolin-5-yl)methyl bicyclo[1.1.1]pentan-1-ylcarbamate]	> 300
CC1(c2ccc(NC(=O)OCc3ccc4c(c3)C(=O)N(C3CCC(=O)NC3=O)C4)cc2Cl)COC1 (stereo not shown) [Compound 236, (2-(2,6-dioxopiperidin-3-yl)-3-oxoisoindolin-5-yl)methyl (3-chloro-4-(3-methyloxetan-3-yl)phenyl)carbamate]	< 30
C[C@@H]1CCCN1c1ccc(NC(=O)OCc2ccc3c(c2)C(=O)N(C2CCC(=O)NC2=O)C3)nc1 (stereo partly shown) [Compound 192]	30 to 300
O=C1CCC(N2Cc3ccc(COC(=O)NC4CN(Cc5ccccc5)C4)cc3C2=O)C(=O)N1 (stereo not shown) [Compound 168]	> 300
CC(C)(C)c1ccc(F)c(NC(=O)OCc2ccc3c(c2)C(=O)N(C2CCC(=O)NC2=O)C3)c1 (stereo not shown) [Compound 235]	30 to 300
O=C1CCC(N2Cc3ccc(COC(=O)Nc4ccc(C(O)C(F)(F)F)nc4)cc3C2=O)C(=O)N1 (stereo not shown) [Compound 238]	> 300
Cc1cc(F)c(NC(=O)OCc2ccc3c(c2)C(=O)N(C2CCC(=O)NC2=O)C3)c(F)c1Cl (stereo not shown) [Compound 211, (2-(2,6-dioxopiperidin-3-yl)-3-oxoisoindolin-5-yl)methyl (3-chloro-2,6-difluoro-4-methylphenyl)carbamate]	30 to 300
Cc1ccc(NC(=O)OCc2ccc3c(c2)C(=O)N(C2CCC(=O)NC2=O)C3)c(F)c1Cl (stereo not shown) [Compound 179, (2-(2,6-dioxopiperidin-3-yl)-3-oxoisoindolin-5-yl) methyl (3-chloro-2-fluoro-4-methylphenyl)carbamate]	< 30
Cc1cc(NC(=O)OCc2ccc3c(c2)C(=O)N(C2CCC(=O)NC2=O)C3)cc(C#N)c1C (stereo not shown) [Compound 186]	< 30
Cc1cc(F)c(NC(=O)OCc2ccc3c(c2)C(=O)N(C2CCC(=O)NC2=O)C3)cc1Br (stereo not shown) [Compound 197, (2-(2,6-dioxopiperidin-3-yl)-3-oxoisoindolin-5-yl)methyl (5-bromo-2-fluoro-4-methylphenyl)carbamate]	30 to 300
Cc1cc(NC(=O)OCc2ccc3c(c2)C(=O)N(C2CCC(=O)NC2=O)C3)ncc1N1CCCC1 (stereo not shown) [Compound 194, (2-(2,6-dioxopiperidin-3-yl)-3-oxoisoindolin-5-yl)methyl (4-methyl-5-(pyrrolidin-1-yl)pyridin-2-yl) carbamate]	> 300
O=C1CCC(N2Cc3ccc(COC(=O)NC45CC(N6CCOCC6)(C4)C5)cc3C2=O)C(=O)N1 (stereo not shown) [Compound 215, (2-(2,6-dioxopiperidin-3-yl)-3-oxoisoindolin-5-yl)methyl (3-morpholinobicyclo[1.1.1]pentan-1-yl)carbamate]	> 300
CCOc1cc(NC(=O)OCc2ccc3c(c2)C(=O)N(C2CCC(=O)NC2=O)C3)c(F)cc1C (stereo not shown) [Compound 228]	< 30
CC(C)Oc1ccc(F)c(NC(=O)OCc2ccc3c(c2)C(=O)N(C2CCC(=O)NC2=O)C3)c1 (stereo not shown) [Compound 221, (2-(2,6-dioxopiperidin-3-yl)-3-oxoisoindolin-5-yl)methyl (2-fluoro-5-isopropoxyphenyl)carbamate]	30 to 300

Structure (SMILES)	DC50 [nM]
CCCOc1cc(NC(=O)OCc2ccc3c(c2)C(=O)N(C2CCC(=O)NC2=O)C3)c(F)cc1C (stereo not shown) [Compound 231, (2-(2,6-dioxopiperidin-3-yl)-3-oxoisoindolin-5-yl)methyl (2-fluoro-4-methyl-5-propoxyphenyl)carbamate]	< 30
O=C1CCC(N2Cc3ccc(COC(=O)Nc4cc(F)c(OC(F)F)c(F)c4)cc3C2=O)C(=O)N1 (stereo not shown) [Compound 206, (2-(2,6-dioxopiperidin-3-yl)-3-oxoisoindolin-5-yl) methyl (4-(difluoromethoxy)-3,5-difluorophenyl)carbamate]	30 to 300
O=C1CCC(N2Cc3ccc(COC(=O)NC45CC(N6CCCCC6)(C4)C5)cc3C2=O)C(=O)N1 (stereo not shown) [Compound 198]	> 300
O=C1CCC(N2Cc3ccc(COC(=O)Nc4cc(OC(F)F)c(F)cn4)cc3C2=O)C(=O)N1 (stereo not shown) [Compound 227, (2-(2,6-dioxopiperidin-3-yl)-3-oxoisoindolin-5-yl)methyl (4-(difluoromethoxy)-5-fluoropyridin-2-yl)carbamate]	> 300
Cc1cc(F)c(NC(=O)OCc2ccc3c(c2)C(=O)N(C2CCC(=O)NC2=O)C3)c(F)c1 (stereo not shown) [Compound 166, (2-(2,6-dioxopiperidin-3-yl)-3-oxoisoindolin-5-yl)methyl (2,6-difluoro-4-methylphenyl)carbamate]	> 300
COc1cc(NC(=O)OCc2ccc3c(c2)C(=O)N(C2CCC(=O)NC2=O)C3)c(F)cc1C (stereo not shown) [Compound 229, (2-(2,6-dioxopiperidin-3-yl)-3-oxoisoindolin-5-yl)methyl (2-fluoro-5-methoxy-4-methylphenyl)carbamate]	30 to 300
O=C1CCC(N2Cc3ccc(COC(=O)Nc4ccc(C(O)C(F)(F)F)cc4)cc3C2=O)C(=O)N1 (stereo not shown) [Compound 209, (2-(2,6-dioxopiperidin-3-yl)-3-oxoisoindolin-5-yl)methyl (4-(2,2,2-trifluoro-1-hydroxyethyl)phenyl) carbamate]	> 300
Cc1cc2c(c(NC(=O)OCc3ccc4c(c3)C(=O)N(C3CCC(=O)NC3=O)C4)c1)OCC2 (stereo not shown) [Compound 182]	> 300
CC(C)(C)[C@H]1C[C@@H](NC(=O)OCc2ccc3c(c2)C(=O)N(C2CCC(=O)NC2=O)C3)C1 (stereo partly drawn) [Compound 184, cis-(2-(2,6-dioxopiperidin-3-yl)-3-oxoisoindolin-5-yl)methyl ((1s,3s)-3-(tert-butyl)cyclobutyl)carbamate]	> 300
Cc1cc(F)c(NC(=O)OCc2ccc3c(c2)C(=O)N(C2CCC(=O)NC2=O)C3)cc1OC(F)(F)F (stereo not shown) [Compound 204, (2-(2,6-dioxopiperidin-3-yl)-3-oxoisoindolin-5-yl) methyl (2-fluoro-4-methyl-5-(trifluoromethoxy)phenyl)carbamate]	30 to 300
CC1(c2ccc(NC(=O)OCc3ccc4c(c3)C(=O)N(C3CCC(=O)NC3=O)C4)cc2F)COC1 (stereo not shown) [Compound 240, (2-(2,6-dioxopiperidin-3-yl)-3-oxoisoindolin-5-yl)methyl (3-fluoro-4-(3-methyloxetan-3-yl)phenyl)carbamate]	30 to 300
O=C1CCC(N2Cc3ccc(COC(=O)Nc4ccc(C5CCC5)cc4F)cc3C2=O)C(=O)N1 (stereo not shown) [Compound 164, (2-(2,6-dioxopiperidin-3-yl)-3-oxoisoindolin-5-yl)methyl (4-cyclobutyl-2-fluorophenyl)carbamate]	> 300
O=C1CCC(N2Cc3ccc(COC(=O)Nc4cc(F)c5c(c4)CCO5)cc3C2=O)C(=O)N1 (stereo not shown) [Compound 212, (2-(2,6-dioxopiperidin-3-yl)-3-oxoisoindolin-5-yl)methyl (7-fluoro-2,3-dihydrobenzofuran-5-yl)carbamate]	< 30
CC(C)(O)c1ccc(NC(=O)OCc2ccc3c(c2)C(=O)N(C2CCC(=O)NC2=O)C3)cc1 (stereo not shown) [Compound 195, (2-(2,6-dioxopiperidin-3-yl)-3-oxoisoindolin-5-yl)methyl (4-(2-hydroxypropan-2-yl)phenyl)carbamate]	> 300
O=C1CCC(N2Cc3ccc(COC(=O)Nc4ccc(F)c(OC(F)F)c4F)cc3C2=O)C(=O)N1 (stereo not shown) [Compound 191, (2-(2,6-dioxopiperidin-3-yl)-3-oxoisoindolin-5-yl)methyl (3-(difluoromethoxy)-2,4-difluorophenyl) carbamate]	30 to 300
